Source: ChEMBL document CHEMBL3739342, “Varitatin A, a Highly Modified Fatty Acid Amide from Penicillium variabile Cultured with a DNA Methyltransferase Inhibitor” (J Nat Prod, 2015)
Calls of active or inactive are those of the source. No cut-off for these calls is given here.

Experiments:
Homo sapiens = species: Homo sapiens; assay: Inhibition of PTK (unknown origin) at 1 uM by ELISA
[1] = Cytotoxicity against human HCT116 cells by SRB assay; format: functional, cell-based; details: HCT-116
[2] = biological target: Receptor tyrosine-protein kinase erbB-4 (Homo sapiens) (UniProt Q15303); assay: Inhibition of ErbB4 (unknown origin) at 1 uM by ELISA
[3] = biological target: Platelet-derived growth factor receptor beta (Homo sapiens) (UniProt P09619); assay: Inhibition of PDGFR-beta (unknown origin) at 1 uM by ELISA
Chain of Platelet-derived growth factor receptor beta (Homo sapiens) (P09619 whole entry): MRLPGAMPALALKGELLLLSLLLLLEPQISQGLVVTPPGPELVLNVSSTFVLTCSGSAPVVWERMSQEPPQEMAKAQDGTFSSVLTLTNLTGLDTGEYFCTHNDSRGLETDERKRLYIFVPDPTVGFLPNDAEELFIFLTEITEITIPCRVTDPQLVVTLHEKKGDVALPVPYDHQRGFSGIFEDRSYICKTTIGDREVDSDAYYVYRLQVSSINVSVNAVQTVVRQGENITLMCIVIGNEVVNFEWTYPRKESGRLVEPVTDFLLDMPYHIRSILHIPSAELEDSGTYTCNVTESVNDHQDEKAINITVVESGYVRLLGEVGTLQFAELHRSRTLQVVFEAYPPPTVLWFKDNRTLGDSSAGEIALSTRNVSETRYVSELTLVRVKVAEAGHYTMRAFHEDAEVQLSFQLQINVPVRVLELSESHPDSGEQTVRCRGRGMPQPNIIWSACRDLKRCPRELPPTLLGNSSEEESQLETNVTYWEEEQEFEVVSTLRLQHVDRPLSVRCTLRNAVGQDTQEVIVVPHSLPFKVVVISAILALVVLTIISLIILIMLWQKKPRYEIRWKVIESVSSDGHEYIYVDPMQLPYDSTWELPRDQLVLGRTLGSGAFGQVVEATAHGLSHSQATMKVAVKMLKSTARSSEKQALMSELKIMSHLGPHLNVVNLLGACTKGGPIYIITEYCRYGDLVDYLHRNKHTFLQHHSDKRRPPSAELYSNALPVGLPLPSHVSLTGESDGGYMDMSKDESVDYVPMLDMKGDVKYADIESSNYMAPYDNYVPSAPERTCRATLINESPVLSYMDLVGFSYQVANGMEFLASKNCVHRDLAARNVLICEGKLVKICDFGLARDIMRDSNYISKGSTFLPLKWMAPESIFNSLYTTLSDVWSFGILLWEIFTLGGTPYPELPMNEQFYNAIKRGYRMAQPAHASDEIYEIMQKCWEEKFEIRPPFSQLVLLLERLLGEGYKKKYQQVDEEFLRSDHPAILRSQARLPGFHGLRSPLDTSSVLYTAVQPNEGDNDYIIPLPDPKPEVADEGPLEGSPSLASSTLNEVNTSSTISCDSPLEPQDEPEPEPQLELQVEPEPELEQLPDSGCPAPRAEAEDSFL

Chain of Receptor tyrosine-protein kinase erbB-4 (Homo sapiens) (Q15303 whole entry): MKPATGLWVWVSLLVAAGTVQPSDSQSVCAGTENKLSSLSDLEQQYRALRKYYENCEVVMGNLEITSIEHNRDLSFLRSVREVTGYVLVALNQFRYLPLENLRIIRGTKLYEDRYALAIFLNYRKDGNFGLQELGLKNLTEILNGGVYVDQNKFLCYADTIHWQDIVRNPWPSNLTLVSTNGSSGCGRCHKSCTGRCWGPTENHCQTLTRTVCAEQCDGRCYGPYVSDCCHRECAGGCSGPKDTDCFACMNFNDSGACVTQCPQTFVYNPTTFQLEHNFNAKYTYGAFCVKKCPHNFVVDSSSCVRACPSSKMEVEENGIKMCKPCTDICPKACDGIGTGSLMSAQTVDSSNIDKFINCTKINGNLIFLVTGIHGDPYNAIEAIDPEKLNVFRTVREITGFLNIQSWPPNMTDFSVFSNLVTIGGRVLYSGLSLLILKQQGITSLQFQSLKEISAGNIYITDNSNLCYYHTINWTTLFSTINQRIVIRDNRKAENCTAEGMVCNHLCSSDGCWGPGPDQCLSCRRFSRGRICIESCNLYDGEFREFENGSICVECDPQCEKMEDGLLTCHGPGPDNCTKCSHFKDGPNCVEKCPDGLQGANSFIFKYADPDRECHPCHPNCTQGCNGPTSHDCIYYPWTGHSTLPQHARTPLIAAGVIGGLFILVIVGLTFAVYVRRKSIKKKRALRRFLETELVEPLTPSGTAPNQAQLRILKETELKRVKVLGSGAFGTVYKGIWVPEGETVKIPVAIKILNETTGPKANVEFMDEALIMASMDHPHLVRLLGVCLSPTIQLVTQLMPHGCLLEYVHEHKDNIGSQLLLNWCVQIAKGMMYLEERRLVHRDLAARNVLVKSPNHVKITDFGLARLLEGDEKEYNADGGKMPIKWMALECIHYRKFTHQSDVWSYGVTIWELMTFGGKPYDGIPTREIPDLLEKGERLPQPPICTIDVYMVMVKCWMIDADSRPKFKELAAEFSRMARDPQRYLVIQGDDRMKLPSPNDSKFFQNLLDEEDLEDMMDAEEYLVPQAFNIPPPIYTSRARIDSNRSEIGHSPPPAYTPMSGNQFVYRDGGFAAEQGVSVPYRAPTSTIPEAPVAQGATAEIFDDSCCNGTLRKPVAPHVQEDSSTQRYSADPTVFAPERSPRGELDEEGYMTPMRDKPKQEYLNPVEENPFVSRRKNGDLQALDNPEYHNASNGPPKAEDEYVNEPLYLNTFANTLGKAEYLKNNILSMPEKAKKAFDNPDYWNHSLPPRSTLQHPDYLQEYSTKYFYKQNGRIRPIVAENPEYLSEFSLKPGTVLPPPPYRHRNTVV

| SMILES | inhibition (Homo sapiens) | IC50 [1] [µM] | inhibition [2] [%] | inhibition [3] [%] |
| --- | --- | --- | --- | --- |
| CC[C@@H](C)/C=C/CCCC/C=C/C=C/C=C/C(=O)N[C@@H]1CO[C@@]2(O)C=C[C@@H](Cl)[C@H](O)[C@@]2(O)C1 | Active | 2.8 | 40 | 50 |
| COc1cccc2c1C(=O)c1c(O)c3c(c(O)c1C2=O)C[C@@](O)(C(=O)CO)C[C@@H]3O[C@H]1C[C@H](N)[C@H](O)[C@H](C)O1 [DOXORUBICIN] | – | 0.2 | – | – |
